We go through 7 molecules from patent EP2853293B1, “Thioninium compounds and their use” (WisTa Laboratories Ltd., priority 2006, dated 2007).

Structures can show the parent of a compound that is named as a salt. Where two headings read alike, the source gives them in different places. A value given as a limit tells only on which side of the number the result lay.

Series [1] addresses T1, tau-tau binding (truncated tau residues 297-390; dGA, and full-length tau (T40)) (Homo sapiens, UniProt P10636). Particulars: read-out: B50; concentration of compound required to inhibit the tau-tau binding by 50%.
From the text: (§1) Briefly, a fragment of tau corresponding to the core repeat domain, which has been adsorbed to a solid phase substrate, is able to capture soluble full-length tau and bind tau with high affinity.
(§2) The aqueous phase binding buffer contained 0.05% Tween-20 and 1% gelatine in phosphate-buffered saline (pH7.4).
Series [2] relates to fibroblast cells (3T6). Particulars: cell numbers after 24 hrs exposure, lactate dehydrogenase assay after lysis of remaining cells.
Method: Toxicity of the compounds described herein was assessed in the cell based assay used to assess EC50. Toxicity was measured by cell numbers after 24 hrs exposure to the compound using a lactate dehydrogenase assay kit TOX-7(Sigma Biosciences) according to the manufacturer's instructions after lysis of remaining cells. Alternatively a kit from Promega UK (CytoTox 96) was used, again according to the manufacturer's instructions.
Series [3] deals with T2, full-length tau ("T40") in fibroblast cells (3T6) (Homo sapiens, UniProt P10636).
T2 construct: fibroblast cells (3T6) express full-length tau ("T40") under control of an inducible promotor; low constitutive levels of the PHF-core tau fragment (12 kD fragment); expressed in transfected cells; host or cells: 3T6 fibroblast cells
Briefly: Cell-based assay for establishing EC50 (inhibition of generation of the 12 kD PHF-core tau fragment). Particulars: concentration at which there is a 50% inhibition of generation of the 12 kD fragment; 3T6 cells. The text has this: In essence, fibroblast cells (3T6) express full-length tau ("T40") under control of an inducible promotor, and low constitutive levels of the PHF-core tau fragment (12 kD fragment).
This is referred to as the EC50 value.

For series [4], the target named is T1, tau-tau binding (truncated tau residues 297-390; dGA, and full-length tau (T40)). The experiment in a line: biochemical.
From the text: as §1, §2

T2 sequence (P10636 2-441 isoform P10636-8 limits assumed): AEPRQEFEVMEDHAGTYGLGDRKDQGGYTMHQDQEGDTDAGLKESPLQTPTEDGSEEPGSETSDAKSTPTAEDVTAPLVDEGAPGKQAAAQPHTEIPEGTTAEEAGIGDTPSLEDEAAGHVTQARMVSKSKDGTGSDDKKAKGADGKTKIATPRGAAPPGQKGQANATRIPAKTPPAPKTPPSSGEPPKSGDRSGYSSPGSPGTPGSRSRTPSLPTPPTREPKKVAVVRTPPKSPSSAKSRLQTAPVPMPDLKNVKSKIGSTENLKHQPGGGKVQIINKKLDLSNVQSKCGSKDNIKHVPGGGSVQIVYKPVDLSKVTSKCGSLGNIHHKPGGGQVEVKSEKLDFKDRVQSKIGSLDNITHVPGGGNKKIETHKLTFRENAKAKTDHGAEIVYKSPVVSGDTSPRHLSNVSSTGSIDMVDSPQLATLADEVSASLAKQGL
T1 sequence (P10636 614-707): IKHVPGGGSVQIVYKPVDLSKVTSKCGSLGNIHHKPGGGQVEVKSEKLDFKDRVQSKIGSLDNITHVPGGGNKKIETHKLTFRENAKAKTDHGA
T1 sequence (P10636 1-441 isoform P10636-8): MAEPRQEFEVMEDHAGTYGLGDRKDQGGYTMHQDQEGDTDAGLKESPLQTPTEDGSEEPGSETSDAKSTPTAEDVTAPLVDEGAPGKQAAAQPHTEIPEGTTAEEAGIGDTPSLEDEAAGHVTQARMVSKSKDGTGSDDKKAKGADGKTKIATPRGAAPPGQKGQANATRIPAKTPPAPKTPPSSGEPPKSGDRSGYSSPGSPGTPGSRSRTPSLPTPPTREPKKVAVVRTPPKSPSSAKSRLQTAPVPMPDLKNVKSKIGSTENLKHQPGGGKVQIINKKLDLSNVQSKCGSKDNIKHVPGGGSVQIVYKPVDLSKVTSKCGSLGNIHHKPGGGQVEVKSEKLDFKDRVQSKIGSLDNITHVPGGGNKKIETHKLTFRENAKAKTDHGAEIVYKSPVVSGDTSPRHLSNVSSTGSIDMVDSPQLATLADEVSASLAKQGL

Regarding `CCc1cc(N(CC)CC)cc2[s+]c3cc(N(CC)CC)cc(CC)c3nc12` [DEETC, 1,9-diethyl-ethyl-thioninium chloride], the IC50 in series [1] stood at 3.7 ± 0.5 µM. Also, the LD50 in series [2] was 1.6 ± 0.4 (13) µM. In series [3], the EC50 (commonly the midpoint of the concentration-response curve) amounted to 0.0006 ± 0.0003 µM.

As to `CCc1cc(N(C)C)cc2[s+]c3cc(N(C)C)cc(CC)c3nc12` [DEMTC, 1,9-diethyl-methyl-thioninium chloride], the LD50 in series [2] was 3.3 ± 0.6 (22) µM. Moreover, the concentration for a half-maximal effect (EC50) in series [3] was found to be 0.0016 ± 0.0006 µM.

On to `CCN(CC)c1cc(C)c2nc3c(C)cc(N(CC)CC)cc3[s+]c2c1` [DMETC, 1,9-dimethyl-ethyl-thioninium chloride], for which the IC50 in series [1] came out at 4.5 ± 0.3 µM. For the same molecule, the LD50 in series [2] is reported as 4.2 ± 2.2 (4) µM. The same molecule returned a concentration for a half-maximal effect (EC50) in series [3] of 0.004 ± 0.001 µM.

Turning to `Cc1cc(N(C)C)cc2[s+]c3cc(N(C)C)cc(C)c3nc12` [DMMTC, 1,9-dimethyl-methyl-thioninium chloride, reference compound], in series [2], the LD50 is given as 2.7 ± 1.2 (6) µM. The same molecule registered an EC50 in series [3] of 0.04 ± 0.004 µM.

Consider `CCN(CC)c1ccc2nc3ccc(=[N+](CC)CC)cc-3sc2c1` [ETI, ethyl-thioninium iodide], for which the IC50 in series [1] is more than 500 µM. This molecule also returned an EC50 in series [3] of 0.06 µM.

Take `CCN(CC)c1ccc2nc3ccc(=[N+](CC)CC)cc-3sc2c1` [ETI.HI, ethyl-thioninium iodide hydrogen iodide mixed salt]: in series [4], the IC50 came out at 83 µM.

For the molecule ethyl-thioninium chloride [ETC], in series [1], the IC50 was 49 ± 8.5 µM. For the same molecule, in series [2], the LD50 was 32.0 ± 4.0 (26) µM. The same molecule had an EC50 in series [3] of 0.07 ± 0.007 µM.
